Patent publication US7772183B2 (Bristol-Myers Squibb Company, priority 2005, dated 2010)
pEC50, pIC50: −log10 of the molar value. Read-outs that look alike come from different tables or passages of the source.

How the values were obtained:
[1] = test system: HCV replicon in HUH-7 cells; experiment: HCV replicon FRET assay; type: cell-based, Hepatitis C virus (strain 1b); details: Hepatitis C virus
Method in brief: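 HUH-7 cells stably carrying a genotype 1b subgenomic HCV replicon (NS3–NS5B) treated with compound for 4 days at 37° C, 0.5% DMSO final. Cytotoxicity (CC50) read by alamar Blue; cells then lysed with 10 μM FRET HCV protease peptide substrate and kinetically read (340/490 nm) for EC50.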

[2] = target: T1, HCV NS3/4A protease complex, BMS strain (UniProt P27958, species not given/STRAIN_BMS); experiment: FRET peptide assay to monitor HCV NS3/4A proteolytic activity (BMS strain); type: biochemical, Hepatitis C virus (genotype 1a); details: NS3/4A BMS strain; read-out: IC50 Range
T1 construct: said of H77 and J4L6S; fused on or other part: A three-lysine solubilising tail at the C-terminus of NS4A and a His tag (pET21b, Ni-NTA purification)
T1 sequence (P27958 1027-1657, change not shown, one chain of several): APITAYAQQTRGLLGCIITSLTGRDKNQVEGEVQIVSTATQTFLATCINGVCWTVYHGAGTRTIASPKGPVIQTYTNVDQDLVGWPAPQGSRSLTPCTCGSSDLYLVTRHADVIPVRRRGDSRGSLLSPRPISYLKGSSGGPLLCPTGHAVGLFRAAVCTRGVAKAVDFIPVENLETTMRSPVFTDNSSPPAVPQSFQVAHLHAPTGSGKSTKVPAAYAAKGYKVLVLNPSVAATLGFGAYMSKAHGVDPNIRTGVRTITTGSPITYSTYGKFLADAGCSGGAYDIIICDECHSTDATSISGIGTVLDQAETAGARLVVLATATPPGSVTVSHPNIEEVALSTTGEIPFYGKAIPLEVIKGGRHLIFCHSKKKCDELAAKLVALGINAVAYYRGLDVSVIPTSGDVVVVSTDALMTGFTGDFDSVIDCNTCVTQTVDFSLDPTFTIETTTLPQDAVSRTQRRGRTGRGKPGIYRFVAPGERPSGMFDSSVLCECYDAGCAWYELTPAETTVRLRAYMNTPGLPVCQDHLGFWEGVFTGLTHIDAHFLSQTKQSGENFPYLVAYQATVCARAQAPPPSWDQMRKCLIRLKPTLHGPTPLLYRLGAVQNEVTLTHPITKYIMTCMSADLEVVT
Method in brief: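 Recombinant NS3/4A complexes (aa 1027–1711) from H77 (1a) and J4L6S (1b) carried a three-lysine tail, C1711G and C1454S. They were expressed in E. coli BL21(DE3) (0.5 mM IPTG, 22 h, 20 °C), then purified by Ni-NTA and Superdex-S200 to >90% purity. The BMS strain was a genotype 1a clone from patient serum.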

[3] = Huh-7, HCV replicon, for compounds tested, read-out: EC50 Range

Structure (SMILES) | pEC50 [1, 3] | pIC50 [2] | melting point [°C] | pEC50 ([1]; Huh-7, read-out: EC50 Range)
CC(C)(C)OC(=O)N[C@H]1CCCCC/C=C\[C@@H]2C[C@@]2(C(=O)NS(=O)(=O)C2CC2)NC(=O)[C@@H]2C[C@@H](OC(=O)c3cccc(Cl)c3)CN2C1=O [Compound 22, 18-(3-chorobenzoyloxy)-14-tert-butoxycarbonylamino-4-cyclopropylsulfonylaminocarbonyl-2,15-dioxo-3,16-diazatricyclo-[14.3.0.0^4,6]-nonadec-7-ene] | > 7.00 | > 7.00 | 154 to 156 | –
CC(C)(C)OC(=O)N[C@H]1CCCCC/C=C\[C@@H]2C[C@@]2(C(=O)NS(=O)(=O)C2CC2)NC(=O)[C@@H]2C[C@@H](OC(=O)c3ccc4nccnc4c3)CN2C1=O [Compound 24, 18-(6-quinoxalinecarbonyloxy)-14-tert-butoxycarbonylamino-4-cyclopropylsulfonylaminocarbonyl-2,15-dioxo-3,16-diazatricyclo-[14.3.0.0^4,6]-nonadec-7-ene] | > 7.00 | > 7.00 | 158 to 160 | –
CC(C)(C)OC(=O)N[C@H]1CCCCC/C=C\[C@@H]2C[C@@]2(C(=O)NS(=O)(=O)C2CC2)NC(=O)[C@@H]2C[C@@H](OC(=O)c3ccc4c(c3)OCCO4)CN2C1=O [Compound 25, 18-(2,3-dihydro-1,4-benzodioxine-6-carbonyloxy)-14-tert-butoxycarbonylamino-4-cyclopropylsulfonylaminocarbonyl-2,15-dioxo-3,16-diazatricyclo-[14.3.0.0^4,6]-nonadec-7-ene] | > 7.00 | > 7.00 | 199 to 201 | –
CC(C)(C)OC(=O)N[C@H]1CCCCC/C=C\[C@@H]2C[C@@]2(C(=O)NS(=O)(=O)C2CC2)NC(=O)[C@@H]2C[C@@H](OC(=O)c3cnccn3)CN2C1=O [Compound 27, 18-(pyrazinecarbonyloxy)-14-tert-butoxycarbonylamino-4-cyclopropylsulfonylaminocarbonyl-2,15-dioxo-3,16-diazatricyclo-[14.3.0.0^4,6]-nonadec-7-ene] | < 6.00 | > 7.00 | 150 to 152 | –
CC(C)(C)OC(=O)N[C@H]1CCCCC/C=C\[C@@H]2C[C@@]2(C(=O)NS(=O)(=O)C2CC2)NC(=O)[C@@H]2C[C@@H](OC(=O)c3ccccn3)CN2C1=O [Compound 28, 18-(picolinoyloxy)-14-tert-butoxycarbonylamino-4-cyclopropylsulfonylaminocarbonyl-2,15-dioxo-3,16-diazatricyclo-[14.3.0.0^4,6]-nonadec-7-ene] | < 6.00 | > 7.00 | 164 to 166 | –
CC(C)(C)OC(=O)N[C@H]1CCCCC/C=C\[C@@H]2C[C@@]2(C(=O)NS(=O)(=O)C2CC2)NC(=O)[C@@H]2C[C@@H](OC(=O)c3ccc(F)cc3)CN2C1=O [Compound 29, 18-(4-fluorobenzoyloxy)-14-tert-butoxycarbonylamino-4-cyclopropylsulfonylaminocarbonyl-2,15-dioxo-3,16-diazatricyclo-[14.3.0.0^4,6]-nonadec-7-ene] | > 7.00 | > 7.00 | 154 to 156 | –
CC(C)(C)OC(=O)N[C@H]1CCCCC/C=C\[C@@H]2C[C@@]2(C(=O)NS(=O)(=O)C2CC2)NC(=O)[C@@H]2C[C@@H](OC(=O)c3cccnc3)CN2C1=O [Compound 30, 18-(nicotinoyloxy)-14-tert-butoxycarbonylamino-4-cyclopropylsulfonylaminocarbonyl-2,15-dioxo-3,16-diazatricyclo-[14.3.0.0^4,6]-nonadec-7-ene] | < 6.00 | > 7.00 | 157 to 159 | –
COC(=O)c1ccc(C(=O)O[C@@H]2C[C@H]3C(=O)N[C@]4(C(=O)NS(=O)(=O)C5CC5)C[C@H]4/C=C\CCCCC[C@H](NC(=O)OC(C)(C)C)C(=O)N3C2)cc1 [Compound 31] | > 7.00 | > 7.00 | 154 to 156 | –
CC(C)(C)OC(=O)N[C@H]1CCCCC/C=C\[C@@H]2C[C@@]2(C(=O)NS(=O)(=O)C2CC2)NC(=O)[C@@H]2C[C@@H](OC(=O)c3ccc(-n4cccn4)cc3)CN2C1=O [Compound 32, 18-(4-[1-pyrazolyl]benzoyloxy)-14-tert-butoxycarbonylamino-4-cyclopropylsulfonylaminocarbonyl-2,15-dioxo-3,16-diazatricyclo-[14.3.0.0^4,6]-nonadec-7-ene] | > 7.00 | > 7.00 | 167 to 169 | –
CC(C)(C)OC(=O)N[C@H]1CCCCC/C=C\[C@@H]2C[C@@]2(C(=O)NS(=O)(=O)C2CC2)NC(=O)[C@@H]2C[C@@H](OC(=O)c3cccc(C#N)c3)CN2C1=O [Compound 33, 18-(3-cyanobenzoyloxy)-14-tert-butoxycarbonylamino-4-cyclopropylsulfonylaminocarbonyl-2,15-dioxo-3,16-diazatricyclo-[14.3.0.0^4,6]-nonadec-7-ene] | 6.00 to 7.00 | > 7.00 | 151 to 153 | –
Cc1cc(C(=O)O[C@@H]2C[C@H]3C(=O)N[C@]4(C(=O)NS(=O)(=O)C5CC5)C[C@H]4/C=C\CCCCC[C@H](NC(=O)OC(C)(C)C)C(=O)N3C2)no1 [Compound 34, 18-(5-methylisoxazole-3-carbonyloxy)-14-tert-butoxycarbonylamino-4-cyclopropylsulfonylaminocarbonyl-2,15-dioxo-3,16-diazatricyclo-[14.3.0.0^4,6]-nonadec-7-ene] | < 6.00 | > 7.00 | 157 to 159 | –
Cc1cc(C(=O)O[C@@H]2C[C@H]3C(=O)N[C@]4(C(=O)NS(=O)(=O)C5CC5)C[C@H]4/C=C\CCCCC[C@H](NC(=O)OC(C)(C)C)C(=O)N3C2)n(C)n1 [Compound 35] | 6.00 to 7.00 | > 7.00 | 149 to 151 | –
CC(C)(C)OC(=O)N[C@H]1CCCOC/C=C\[C@@H]2C[C@@]2(C(=O)NS(=O)(=O)C2CC2)NC(=O)[C@@H]2C[C@@H](OC(=O)NC3CCCCC3)CN2C1=O [Compound 36, 18-(cyclohexylaminocarbonyloxy)-14-tert-butoxycarbonylamino-4-cyclopropylsulfonylaminocarbonyl-2,15-dioxo-3,16-diaza-10-oxatricyclo-[14.3.0.0^4,6]-nonadec-7-ene] | < 6.00 | 6.00 to 7.00 | 156 to 158 | –
CC(C)(C)OC(=O)N[C@H]1CCCOC/C=C\[C@@H]2C[C@@]2(C(=O)NS(=O)(=O)C2CC2)NC(=O)[C@@H]2C[C@@H](OC(=O)NCC3CCCCC3)CN2C1=O [Compound 37, 18-cyclohexylmethylaminocarbonyloxyl-14-tert-butoxycarbonylamino-4-cyclopropylsulfonylaminocarbonyl-2,15-dioxo-3,16-diaza-10-oxatricyclo-[14.3.0.0^4,6]-nonadec-7-ene] | < 6.00 | 6.00 to 7.00 | 142 to 144 | –
COC(=O)c1ccccc1NC(=O)O[C@@H]1C[C@H]2C(=O)N[C@]3(C(=O)NS(=O)(=O)C4CC4)C[C@H]3/C=C\COCCC[C@H](NC(=O)OC(C)(C)C)C(=O)N2C1 [Compound 38, 18-(2-carbomethoxyphenylaminocarbonyloxy)-14-tert-butoxycarbonylamino-4-cyclopropylsulfonylaminocarbonyl-2,15-dioxo-3,16-diaza-10-oxatricyclo-[14.3.0.0^4,6]-nonadec-7-ene] | – | > 7.00 | 147 to 149 | 6.00 to 7.00
CC(C)(C)OC(=O)N[C@H]1COCCC/C=C\[C@@H]2C[C@@]2(C(=O)NS(=O)(=O)C2CC2)NC(=O)[C@@H]2C[C@@H](OC(=O)Nc3ccccc3Oc3ccccc3)CN2C1=O [Compound 40, 18-(2-phenoxyphenylaminocarbonyloxy)-14-tert-butoxycarbonylamino-4-cyclopropylsulfonylaminocarbonyl-2,15-dioxo-3,16-diaza-12-oxatricyclo-[14.3.0.0^4,6]-nonadec-7-ene] | 6.00 to 7.00 | 6.00 to 7.00 | 151 to 153 | –
CC(C)(C)OC(=O)N[C@H]1COCCC/C=C\[C@@H]2C[C@@]2(C(=O)NS(=O)(=O)C2CC2)NC(=O)[C@@H]2C[C@@H](OC(=O)Nc3ccc(Oc4ccccc4)cc3)CN2C1=O [Compound 41, 18-(4-phenoxyphenylaminocabonyloxy)-14-tert-butoxycarbonylamino-4-cyclopropylsulfonylaminocarbonyl-2,15-dioxo-3,16-diaza-12-oxatricyclo-[14.3.0.0^4,6]-nonadec-7-ene] | < 6.00 | < 6.00 | 163 to 165 | –
CC(C)(C)OC(=O)N[C@H]1COCCC/C=C\[C@@H]2C[C@@]2(C(=O)NS(=O)(=O)C2CC2)NC(=O)[C@@H]2C[C@@H](OC(=O)Nc3ccccc3-c3ccccc3)CN2C1=O [Compound 42, 18-(2-biphenylaminocarbonyloxy)-14-tert-butoxycarbonylamino-4-cyclopropylsulfonylaminocarbonyl-2,15-dioxo-3,16-diaza-12-oxatricyclo-[14.3.0.0^4,6]-nonadec-7-ene] | 6.00 to 7.00 | > 7.00 | 147 to 149 | –
CCOC(=O)c1ccccc1NC(=O)N[C@H]1CCCCC/C=C\[C@@H]2C[C@@]2(C(=O)NS(=O)(=O)C2CC2)NC(=O)[C@@H]2C[C@@H](OC(=O)Nc3ccccc3C(=O)OCC)CN2C1=O [Compound 44] | 6.00 to 7.00 | > 7.00 | 142 to 144 | –
